Results reported in patent US11083717B2, “Compositions and methods for drug sensitization of parasites” (The Texas A&M University System, priority 2015, dated 2021).
Converted amounts (≈) assume the structure as drawn. Where two headings read alike, the source gives them in different places.

Tested on: Cryptosporidium parvum (CP)
Assay: Cell culture model of Cryptosporidium parvum infection in HCT-8 cells, real-time qRT-PCR
Format: cell-based
Procedure: Fresh oocysts of CP (Iowa strain) were purchased from Bunch Grass Farm (Deary, Id.). Oocysts were further purified by a Percoll-based gradient centrifugation method and surface sterilized with 10% bleach for 7 min on ice, followed by washes with phosphate-buffered saline (PBS). An ileocecal colorectal adenocarcinoma cell line (HCT-8, ATCC #CCL-244) was used to host the growth of CP in vitro. One day before the inoculation, HCT-8 cells were seeded in 96-well plates (2.5×10^4/well) containing RPMI 1640 medium supplied with 10% fetal bovine serum (200 μL medium/well in all experiments) and allowed to grow overnight at 37° C. under 5% CO2 atmosphere until they reached ˜90% confluence. For drug testing, host cells were infected with 1.5×10^4 oocysts per well (ratio ˜1:3). After inoculation, parasite oocysts were allowed to undergo excystation and invasion into host cells for 3 h at 37° C. Free parasites and oocyst walls in the medium were removed from the plates by an exchange of the culture medium. Drugs at specified concentrations were added into the culture at this time point (immediately after the medium exchange). Parasite-infected cells were then incubated at 37° C. for additional 41 h (total 44 h infection time). At least two independent experiments were conducted for every experimental condition, each including two replicates drugs and eight replicates for negative controls.
Plates containing HCT-8 cells infected with CP for 44 h were first centrifuged for 10 min at 1000×g to ensure that free merozoites in the medium were firmly settled on the bottom of the wells. Medium was removed, followed by two gentle washes with PBS. For extracting total RNA, 200 μL of ice-cold Bio-Rad iScript qRT-PCR sample preparation reagent (lysis buffer) (Bio-Rad Laboratories, Hercules, Calif.) was added into each well. Plates were sealed with heat sealing films and subjected to vortex for 20 min. Plates were then incubated at 75° C. for 15 min, followed by centrifugation (5 min, 2000×g) to settle down cell debris. Supernatants were used immediately in subsequent qRT-PCR reactions or the plates were stored at −80° C. until use.
The levels of 18S rRNA transcripts from CP and host cells (referred to as Cp18S and Hs18S) were detected by real-time qRT-PCR method using qScrip™ one-step SYBR green qRT-PCR kit (Quanta Biosciences, Gaithersburg, Md.). Cell lysates prepared as described above were diluted by 100 and 2000 folds for detecting Cp18S and Hs18S transcripts, respectively. Reactions were performed in hard-shell 384-well skirted PCR plates (Bio-Rad Laboratories, Hercules, Calif.) (10 μL/well) containing 3 μL diluted cell lysate, 5 μL one-step SYBR green master mix, 0.2 μl RT master mix and the following primers: Cp18S-1011F and Cp18S-1185R primer pair for Cp18S rRNA, and Hs18S-1F and Hs18S-1R primer pair for Hs18S rRNA. Hs18S levels were used as controls and for normalization.
Real-time qRT-PCR reactions were performed by a Bio-Rad CFX384 Touch Real-Time PCR Detection System. The reactions started with synthesizing cDNA at 50° C. for 20 min, followed by 5 min at 95° C. to denature RNA-cDNA hybrids and deactivate reverse transcriptase, and 40 two-temperature thermal cycles of PCR amplification at 95° C., 10 sec and 58° C., 30 sec. At the end of PCR amplification, melting curve analysis was performed between 65° C. to 95° C. At least 2 technical replicates were included in qRT-PCR reactions for each sample.
The % inhibition (% inh @ (μM)) was calculated using a standard curve.

[1] = Cryptosporidium parvum, 44 h, CP in HCT-8 cells, 44 h infection, 50% reduction of parasite growth vs control, NA: not active, read-out: MIC50
[2] = CP in HCT-8 cells, 44 h infection, 50% reduction of parasite growth vs control, NA: not active, read-out: MIC50

Row | MIC50 [1] [µM] | Structure (SMILES) | further results
1 | 0.022 to 0.045 (≈ 0.00942 to 0.0193 µg/mL) | CN1CCN(C(=O)C2(c3ccc(Oc4nc5ccc(Cl)cc5s4)cc3)CC2)CC1 [NZ-522, 6-chloro-2-{4-[1-(4-methylpiperazine-1-carbonyl)cyclopropyl]phenoxy}-1,3-benzothiazole] | 
2 | 0.018 (≈ 0.00833 µg/mL) | O=C(N1CCS(=O)(=O)CC1)C1(c2ccc(Oc3nc4ccc(Cl)cc4s3)cc2)CC1 [NZ-563, 4-(1-{4-[(6-chloro-1,3-benzothiazol-2-yl)oxy]phenyl}cyclopropanecarbonyl)-1λ^6,4-thiomorpholine-1,1-dione] | 
3 | ~0.225 (≈ 0.0801 µg/mL) | CC(C(=O)N(C)C)c1ccc(Oc2cnc3cc(Cl)ccc3n2)cc1 (stereo not shown) [NZ-530, 2-{4-([6-chloroquinoxalin-2-yl)oxy]phenyl}-N,N-dimethylpropanamide] | 
4 | ~0.056 (≈ 0.0243 µg/mL) | CC(C(=O)NCCN(C)CCO)c1ccc(Oc2nc3ccc(Cl)cc3s2)cc1 (stereo not shown) [NZ-556, 2-{4-[(6-chloro-1,3-benzothiazol-2-yl)oxy]phenyl}-N-{2-[(2-hydroxyethyl)(methyl)amino]ethyl}propanamide] | inhibition at 0.056 µM (Cryptosporidium parvum, HCT-8, @0.056 uM): 64%
5 | ~0.056 (≈ 0.0242 µg/mL) | CC(C(=O)N1CCOC(CO)C1)c1ccc(Oc2nc3ccc(Cl)cc3s2)cc1 (stereo not shown) [NZ-558, 2-{4-[(6-chloro-1,3-benzothiazol-2-yl)oxy]phenyl}-1-[2-(hydroxymethyl)morpholin-4-yl]propan-1-one] | 
6 |  | CC(C(=O)N1CCN(C)CC1)c1ccc(Oc2nc3ccc(Cl)cc3s2)cc1 (single isomer, unassigned) [NZ-366 (peak 2), 2-{4-[(6-chloro-1,3-benzothiazol-2-yl)oxy]phenyl}-1-(4-methylpiperazin-1-yl)propan-1-one] | % inh @ (μM) (@0.05 uM): 81% @0.05 uM; MIC50 [2]: <0.05 µM
7 | ~1 (≈ 0.376 µg/mL) | O=C(Nc1ccc(Oc2nc3ccc(Cl)cc3s2)cc1)NC1COC1 [NZ-574, 1-{4-[(6-chloro-1,3-benzothiazol-2-yl)oxy]phenyl}-3-(oxetan-3-yl)urea] | 
8 | 0.04 (≈ 0.0166 µg/mL) | O=C(N1CCOCC1)C1(c2ccc(Oc3nc4ccc(Cl)cc4s3)cc2)CC1 [NZ-561, 6-chloro-2-{4-[1-(morpholine-4-carbonyl)cyclopropyl]phenoxy}-1,3-benzothiazole] | 
9 |  | CNC(=O)C(C)c1ccc(Oc2nc3ccc(Cl)cc3s2)cc1 (single isomer, unassigned) [NZ-369 (peak 1), 2-{4-[(6-chloro-1,3-benzothiazol-2-yl)oxy]phenyl}-N-methylpropanamide] | MIC50 [2]: 0.07 µM (≈ 0.0243 µg/mL)
10 | 0.056 to 0.112 (≈ 0.025 to 0.0499 µg/mL) | CC(C(=O)N1CCOC(C(N)=O)C1)c1ccc(Oc2nc3ccc(Cl)cc3s2)cc1 (stereo not shown) [NZ-554, 4-(2-{4-[(6-chloro-1,3-benzothiazol-2-yl)oxy]phenyl}propanoyl)morpholine-2-carboxamide] | 
11 |  | CN1CCN(C(=O)COc2ccc(Oc3cnc4cc(Cl)ccc4n3)cc2)CC1 [NZ-278, 2-{4-[(6-chloroquinoxalin-2-yl)oxy]phenoxy}-1-(4-methylpiperazin-1-yl)ethan-1-one] | MIC50 (Cryptosporidium parvum, 44 h): ~0.25 µM (≈ 0.103 µg/mL)
12 |  | C[C@@H](Oc1ccc(Oc2nc3ccc([N+](=O)[O-])cc3s2)cc1)C(=O)O [NZ-261, (2R)-2-{4-[(6-nitro-1,3-benzothiazol-2-yl)oxy]phenoxy}propanoic acid] | MIC50 (Cryptosporidium parvum, 44 h): ~10 µM (≈ 3.6 µg/mL); inhibition at 10 µM (Cryptosporidium parvum, HCT-8, read-out: % inh @ (μM)): 60%
13 | > 0.45 | CC(C(=O)NCCN)c1ccc(Oc2nc3ccc(Cl)cc3s2)cc1 (stereo not shown) [NZ-518, N-(2-aminoethyl)-2-{4-([6-chloro-1,3-benzothiazol-2-yl)oxy]phenyl}propanamide] | 
14 | ~0.25 (≈ 0.0937 µg/mL) | O=C(Cc1ccc(Oc2nc3ccc(Cl)cc3s2)cc1)NC1COC1 [NZ-577, 2-{4-[(6-chloro-1,3-benzothiazol-2-yl)oxy]phenyl}-N-(oxetan-3-yl)acetamide] | 
15 | 0.225 to 0.45 (≈ 0.0898 to 0.18 µg/mL) | CC(C(=O)NCCN(C)C)c1ccc(Oc2cnc3cc(Cl)ccc3n2)cc1 (stereo not shown) [NZ-535] | 
16 | 0.112 (≈ 0.0487 µg/mL) | COCC(COC)NC(=O)C(C)c1ccc(Oc2nc3ccc(Cl)cc3s2)cc1 (stereo not shown) [NZ-542, 2-{4-[(6-chloro-1,3-benzothiazol-2-yl)oxy]phenyl}-N-(1,3-dimethoxypropan-2-yl)propanamide] | 
